Reference: patent US20230015949A1, “NEISSERIA TREATMENT USING CANNABINOIDS” (priority 2019, published 2023)
Values after ≈ are worked out from the molar mass of the structure shown.

What was measured:
[1] = Un-inoculated solubility control plate, drug precipitation; format: physicochemical; conditions: Neisseria test medium and CAMHB
Neisseria gonorrhoeae = assay: Agar dilution MIC assay, 25 isolates (Example 3); format: cell-based; conditions: for Number of isolates at MIC 0.015 μg mL^−1 / Number of isolates at MIC 0.03 μg mL^−1 / Number of isolates at MIC 0.06 μg mL^−1 / Number of isolates at MIC 0.08 μg mL^−1 / Number of isolates at MIC 0.12 μg mL^−1 / Number of isolates at MIC 0.25 μg mL^−1 / Number of isolates at MIC 0.5 μg mL^−1 / Number of isolates at MIC 1 μg mL^−1 / Number of isolates at MIC 2 μg mL^−1 / Number of isolates at MIC 4 μg mL^−1 / Number of isolates at MIC 8 μg mL^−1 / Number of isolates at MIC >8 μg mL^−1 / Number of isolates at MIC ≤0.004 μg mL^−1: 25 isolates, agar dilution assay, MIC distribution; for MIC / MIC50 / MIC90: Neisseria gonorrhoeae, agar dilution; for MIC50 / MIC90: 25 isolates of N. gonorrhoeae
Protocol: The MIC of Neisseria gonorrhoea was established using an agar dilution MIC assay.
Test drugs were provided by Micromyx. All stock solutions were allowed to stand for at least 1 hr prior to use to auto-sterilize. Leftover stock solutions of comparator drugs were aliquoted and stored at −80° C. Suppliers, catalog/lot numbers, solvents, stock concentrations and testing ranges were as follows.
Test organisms were reference strains from the American Type Culture Collection (ATCC; Manassas, Va.), isolates from WHO, isolates from the CDC antibiotic resistance bank, and clinical isolates from the Micromyx (MMX) repository. Upon receipt at Micromyx, the isolates were streaked under suitable conditions onto agar medium appropriate to each organism and were incubated for 24-48 hr at 35° C. Colonies harvested from these growth plates were resuspended in the appropriate medium containing a cryoprotectant. Aliquots of each suspension were then frozen at −80° C.
Prior to testing, the isolates were sub-cultured onto Chocolate agar (Becton Dickenson [BD]/BBL; Sparks, Md., Cat. No. 221267, Lot No. 9346275) and placed at 35° C. in a CO2 incubator for 24 hrs.
MIC values were determined using the agar dilution method (1, 2). All serial dilutions and liquid handling were performed by hand using sterile pipettes. […] Cannabidiol was prepared as a stock solution at 100× the final concentration in the appropriate solvent and diluted according to CLSI guidelines.
Each test agent was mixed with molten (50-55° C.) GC media agar supplemented with 1% IsoVitalex. […] All other test agents were added to the medium in a ratio of 0.2 mL 100× test agent to 19.8 mL agar. Once test agents were added to the agar in a sterile tube, they were mixed gently and then poured into a sterile 110×15 mm petri dish. Plates were allowed to solidify at room temperature and placed in a laminar air flow hood with the covers off to remove condensed moisture on the agar surface.
Next, each isolate was suspended to the equivalent of a 0.5 McFarland standard in saline using a Siemens Microscan turbidity meter and diluted 1:10. Each bacterial cell suspension was then transferred to wells in a stainless-steel replicator block. The prongs on the replicator deliver approximately 1-2 μl of inoculum to an agar surface. The resulting inoculum spots contained approximately 10^4 cells/spot.
Each agar plate containing either test compound or no drug (control) was stamped with the replicator. All plates were placed with the agar surface up to allow for the inoculum to soak into the agar. The plates were inverted and incubated at 35° C. for 24 hrs in a CO2 incubator and finally inspected for growth.

[2] = ATCC49226, N. gonorrhoeae ATCC 49226 (QC)
[3] = N. gonorrhoeae MMX 10409 (CIP-R)
[4] = NCTC13477, N. gonorrhoeae NCTC 13477 (WHO F)
[5] = NCTC13478, N. gonorrhoeae NCTC 13478 (WHO G)
[6] = NCTC13479, N. gonorrhoeae NCTC 13479 (WHO K)
[7] = NCTC13480, N. gonorrhoeae NCTC 13480 (WHO L)
[8] = NCTC13481, N. gonorrhoeae NCTC 13481 (WHO M)
[9] = NCTC13482, N. gonorrhoeae NCTC 13482 (WHO N)
[10] = NCTC13483, N. gonorrhoeae NCTC 13483 (WHO O)
[11] = NCTC13817, N. gonorrhoeae NCTC 13817 (WHO U)
[12] = NCTC13818, N. gonorrhoeae NCTC 13818 (WHO V)
[13] = NCTC13819, N. gonorrhoeae NCTC 13819 (WHO W)
[14] = NCTC13820, N. gonorrhoeae NCTC 13820 (WHO X)

SMILES: C=C(C)C1CCC(C)=CC1c1c(O)cc(CCCCC)cc1O (centres unmarked) [CBD, 2-[3-methyl-6-(1-methylethenyl)-2-cyclohexen-1-yl]-5-pentyl-1,3-benzenediol]
- Concentration at which precipitation was seen [1]: ≥ 8000 ng/mL
- Number of isolates at MIC 0.015 μg mL^−1 (Neisseria gonorrhoeae): 0
- Number of isolates at MIC 0.03 μg mL^−1 (Neisseria gonorrhoeae): 0
- Number of isolates at MIC 0.06 μg mL^−1 (Neisseria gonorrhoeae): 0
- Number of isolates at MIC 0.08 μg mL^−1 (Neisseria gonorrhoeae): 0
- Number of isolates at MIC 0.12 μg mL^−1 (Neisseria gonorrhoeae): 0
- Number of isolates at MIC 0.25 μg mL^−1 (Neisseria gonorrhoeae): 0
- Number of isolates at MIC 0.5 μg mL^−1 (Neisseria gonorrhoeae): 2
- Number of isolates at MIC 1 μg mL^−1 (Neisseria gonorrhoeae): 14
- Number of isolates at MIC 2 μg mL^−1 (Neisseria gonorrhoeae): 9
- Number of isolates at MIC 4 μg mL^−1 (Neisseria gonorrhoeae): 0
- Number of isolates at MIC 8 μg mL^−1 (Neisseria gonorrhoeae): 0
- Number of isolates at MIC >8 μg mL^−1 (Neisseria gonorrhoeae): 0
- Number of isolates at MIC ≤0.004 μg mL^−1 (Neisseria gonorrhoeae): 0
- MIC (Neisseria gonorrhoeae; [2]): 2 µg/mL (≈ 6.36 µM)
- MIC (Neisseria gonorrhoeae; N. gonorrhoeae CDC0165): 2 µg/mL (≈ 6.36 µM)
- MIC (Neisseria gonorrhoeae; N. gonorrhoeae CDC0166): 9 µg/mL (≈ 28.6 µM)
- MIC (Neisseria gonorrhoeae; N. gonorrhoeae CDC0167): 1 µg/mL (≈ 3.18 µM)
- MIC (Neisseria gonorrhoeae; N. gonorrhoeae CDC 0172): 7 µg/mL (≈ 22.3 µM)
- MIC (Neisseria gonorrhoeae; N. gonorrhoeae CDC 0175): 1 µg/mL (≈ 3.18 µM)
- MIC (Neisseria gonorrhoeae; N. gonorrhoeae CDC 0177): 1 µg/mL (≈ 3.18 µM)
- MIC (Neisseria gonorrhoeae; N. gonorrhoeae CDC 0178): 2 µg/mL (≈ 6.36 µM)
- MIC (Neisseria gonorrhoeae; N. gonorrhoeae CDC 0180): 7 µg/mL (≈ 22.3 µM)
- MIC (Neisseria gonorrhoeae; N. gonorrhoeae CDC 0181): 0.5 µg/mL (≈ 1.59 µM)
- MIC (Neisseria gonorrhoeae; N. gonorrhoeae CDC 0194): 1 µg/mL (≈ 3.18 µM)
- MIC (Neisseria gonorrhoeae; N. gonorrhoeae CDCO174): 2 µg/mL (≈ 6.36 µM)
- MIC (Neisseria gonorrhoeae; [3]): 1 µg/mL (≈ 3.18 µM)
- MIC (Neisseria gonorrhoeae; [4]): 1 µg/mL (≈ 3.18 µM)
- MIC (Neisseria gonorrhoeae; [5]): 1 µg/mL (≈ 3.18 µM)
- MIC (Neisseria gonorrhoeae; [6]): 0.5 µg/mL (≈ 1.59 µM)
- MIC (Neisseria gonorrhoeae; [7]): 2 µg/mL (≈ 6.36 µM)
- MIC (Neisseria gonorrhoeae; [8]): 1 µg/mL (≈ 3.18 µM)
- MIC (Neisseria gonorrhoeae; [9]): 1 µg/mL (≈ 3.18 µM)
- MIC (Neisseria gonorrhoeae; [10]): 1 µg/mL (≈ 3.18 µM)
- MIC (Neisseria gonorrhoeae; NCTC13484, N. gonorrhoeae NCTC 13484 (WHO P)): 7 µg/mL (≈ 22.3 µM)
- MIC (Neisseria gonorrhoeae; [11]): 1 µg/mL (≈ 3.18 µM)
- MIC (Neisseria gonorrhoeae; [12]): 1 µg/mL (≈ 3.18 µM)
- MIC (Neisseria gonorrhoeae; [13]): 1 µg/mL (≈ 3.18 µM)
- MIC (Neisseria gonorrhoeae; [14]): 1 µg/mL (≈ 3.18 µM)
- MIC50 (Neisseria gonorrhoeae): 1 µg/mL (≈ 3.18 µM)
- MIC90 (Neisseria gonorrhoeae): 2 µg/mL (≈ 6.36 µM)

SMILES: CO/N=C(\C(=O)N[C@@H]1C(=O)N2C(C(=O)O)=C(CSc3nc(=O)c(=O)[nH]n3C)CS[C@H]12)c1csc(N)n1 [CRO, ceftriaxone]
- Number of isolates at MIC 0.015 μg mL^−1 (Neisseria gonorrhoeae): 6
- Number of isolates at MIC 0.03 μg mL^−1 (Neisseria gonorrhoeae): 1
- Number of isolates at MIC 0.06 μg mL^−1 (Neisseria gonorrhoeae): 6
- Number of isolates at MIC 0.08 μg mL^−1 (Neisseria gonorrhoeae): 5
- Number of isolates at MIC 0.12 μg mL^−1 (Neisseria gonorrhoeae): 1
- Number of isolates at MIC 0.25 μg mL^−1 (Neisseria gonorrhoeae): 2
- Number of isolates at MIC 0.5 μg mL^−1 (Neisseria gonorrhoeae): 0
- Number of isolates at MIC 1 μg mL^−1 (Neisseria gonorrhoeae): 0
- Number of isolates at MIC 2 μg mL^−1 (Neisseria gonorrhoeae): 1
- Number of isolates at MIC 4 μg mL^−1 (Neisseria gonorrhoeae): 0
- Number of isolates at MIC 8 μg mL^−1 (Neisseria gonorrhoeae): 0
- Number of isolates at MIC >8 μg mL^−1 (Neisseria gonorrhoeae): 0
- Number of isolates at MIC ≤0.004 μg mL^−1 (Neisseria gonorrhoeae): 3
- MIC (Neisseria gonorrhoeae; [2]): 0.015 µg/mL (≈ 0.027 µM)
- MIC (Neisseria gonorrhoeae; N. gonorrhoeae CDC0165): 0.06 µg/mL (≈ 0.108 µM)
- MIC (Neisseria gonorrhoeae; N. gonorrhoeae CDC0167): 0.004 µg/mL (≈ 0.00721 µM)
- MIC (Neisseria gonorrhoeae; N. gonorrhoeae CDC 0175): 0.008 µg/mL (≈ 0.0144 µM)
- MIC (Neisseria gonorrhoeae; N. gonorrhoeae CDC 0177): 0.015 µg/mL (≈ 0.027 µM)
- MIC (Neisseria gonorrhoeae; N. gonorrhoeae CDC 0178): 0.06 µg/mL (≈ 0.108 µM)
- MIC (Neisseria gonorrhoeae; N. gonorrhoeae CDC 0181): 0.008 µg/mL (≈ 0.0144 µM)
- MIC (Neisseria gonorrhoeae; N. gonorrhoeae CDC 0194): 0.25 µg/mL (≈ 0.451 µM)
- MIC (Neisseria gonorrhoeae; N. gonorrhoeae CDCO174): 0.06 µg/mL (≈ 0.108 µM)
- MIC (Neisseria gonorrhoeae; [3]): 0.06 µg/mL (≈ 0.108 µM)
- MIC (Neisseria gonorrhoeae; [4]): < 0.004 µg/mL
- MIC (Neisseria gonorrhoeae; [5]): 0.015 µg/mL (≈ 0.027 µM)
- MIC (Neisseria gonorrhoeae; [6]): 0.015 µg/mL (≈ 0.027 µM)
- MIC (Neisseria gonorrhoeae; [7]): 0.25 µg/mL (≈ 0.451 µM)
- MIC (Neisseria gonorrhoeae; [8]): 0.008 µg/mL (≈ 0.0144 µM)
- MIC (Neisseria gonorrhoeae; [9]): 0.008 µg/mL (≈ 0.0144 µM)
- MIC (Neisseria gonorrhoeae; [10]): 0.015 µg/mL (≈ 0.027 µM)
- MIC (Neisseria gonorrhoeae; [11]): 0.002 µg/mL (≈ 0.00361 µM)
- MIC (Neisseria gonorrhoeae; [12]): 0.015 µg/mL (≈ 0.027 µM)
- MIC (Neisseria gonorrhoeae; [13]): 0.12 µg/mL (≈ 0.216 µM)
- MIC (Neisseria gonorrhoeae; [14]): 2 µg/mL (≈ 3.61 µM)
- MIC50 (Neisseria gonorrhoeae): 0.015 µg/mL (≈ 0.027 µM)
- MIC90 (Neisseria gonorrhoeae): 0.25 µg/mL (≈ 0.451 µM)
